According to the supplement of paper PMC10307832:

Key:
Experiment in all cases: relative viability (nuclei count vs DMSO), 5 days (fraction); higher = more cells survive
JZL-184 + Bortezomib = compound: C1CN(CCC1C(C2=CC3=C(C=C2)OCO3)(C4=CC5=C(C=C4)OCO5)O)C(=O)OC6=CC=C(C=C6)[N+](=O)[O-] [JZL-184] + CC(C)C[C@H](NC(=O)[C@H](Cc1ccccc1)NC(=O)c1cnccn1)B(O)O [Bortezomib] (partner 0.002 µM)
Method in brief: (§1)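 Relative viability divides the nuclei count in treated wells by that in vehicle wells. Lung cancer cell lines were seeded in 1536-well plates, dosed by pin tool the next day, and fixed and stained after 5 days in one step with final 0.05% Triton X-100, 1% formaldehyde and 1 ug/ml Hoechst. Dosing was a single drug or a fixed anchor-drug dose plus five library-drug doses (not always all listed) in √10 steps, and values are medians of duplicate plates imaged at 4×.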

JZL-184 + Luminespib = compound: C1CN(CCC1C(C2=CC3=C(C=C2)OCO3)(C4=CC5=C(C=C4)OCO5)O)C(=O)OC6=CC=C(C=C6)[N+](=O)[O-] [JZL-184] + CCNC(=O)c1noc(-c2cc(C(C)C)c(O)cc2O)c1-c1ccc(CN2CCOCC2)cc1 [Luminespib] (partner 0.01 µM)
Method in brief: as §1

JZL-184 + Foretinib = compound: C1CN(CCC1C(C2=CC3=C(C=C2)OCO3)(C4=CC5=C(C=C4)OCO5)O)C(=O)OC6=CC=C(C=C6)[N+](=O)[O-] [JZL-184] + COc1cc2c(Oc3ccc(NC(=O)C4(C(=O)Nc5ccc(F)cc5)CC4)cc3F)ccnc2cc1OCCCN1CCOCC1 [Foretinib] (partner 0.25 µM)
Method in brief: as §1

JZL-184 + Tozasertib = compound: C1CN(CCC1C(C2=CC3=C(C=C2)OCO3)(C4=CC5=C(C=C4)OCO5)O)C(=O)OC6=CC=C(C=C6)[N+](=O)[O-] [JZL-184] + Cc1cc(Nc2cc(N3CCN(C)CC3)nc(Sc3ccc(NC(=O)C4CC4)cc3)n2)n[nH]1 [Tozasertib] (partner 0.1 µM)
Method in brief: as §1

JZL-184 + Vorinostat = compound: C1CN(CCC1C(C2=CC3=C(C=C2)OCO3)(C4=CC5=C(C=C4)OCO5)O)C(=O)OC6=CC=C(C=C6)[N+](=O)[O-] [JZL-184] + O=C(CCCCCCC(=O)Nc1ccccc1)NO [Vorinostat] (partner 1 µM)
Method in brief: as §1

Cell Line	relative viability (JZL-184 + Bortezomib; first compound 0.04 µM)	relative viability (JZL-184 + Bortezomib; first compound 0.4 µM)	relative viability (JZL-184 + Bortezomib; first compound 1.265 µM)	relative viability (JZL-184 + Bortezomib; first compound 4 µM)	relative viability (JZL-184 + Luminespib; first compound 0.04 µM)	relative viability (JZL-184 + Luminespib; first compound 0.4 µM)	relative viability (JZL-184 + Luminespib; first compound 1.265 µM)	relative viability (JZL-184 + Luminespib; first compound 4 µM)	relative viability (JZL-184 + Foretinib; first compound 0.04 µM)	relative viability (JZL-184 + Foretinib; first compound 0.4 µM)	relative viability (JZL-184 + Foretinib; first compound 1.265 µM)	relative viability (JZL-184 + Foretinib; first compound 4 µM)	relative viability (JZL-184 + Tozasertib; first compound 0.04 µM)	relative viability (JZL-184 + Tozasertib; first compound 0.4 µM)	relative viability (JZL-184 + Tozasertib; first compound 1.265 µM)	relative viability (JZL-184 + Tozasertib; first compound 4 µM)	relative viability (JZL-184 + Vorinostat; first compound 0.04 µM)	relative viability (JZL-184 + Vorinostat; first compound 0.4 µM)	relative viability (JZL-184 + Vorinostat; first compound 1.265 µM)	relative viability (JZL-184 + Vorinostat; first compound 4 µM)
LOU-NH91	0.51	0.419	0.511	0.471	0.26	0.322	0.32	0.387	1.02	0.9	1.03	0.939	0.806	0.727	0.798	0.629	1.02	0.893	1.03	0.893
LU99A	1.29	1.09	1.32	1.22	0.279	0.224	0.283	0.321	0.801	0.726	0.873	0.767	0.283	0.299	0.317	0.285	0.567	0.377	0.66	0.548
LXF-289	1.01	0.953	1.04	0.933	0.917	0.57	0.693	0.618	1.05	0.957	0.997	0.947	0.221	0.206	0.198	0.22	0.771	0.734	0.755	0.669
NCI-H23	1.24	0.765	1.21	1.07	0.21		0.194	0.21	0.913	1.01	1.15	1.01	0.375	0.307	0.414	0.316	0.62		0.673	0.502
NCI-H322M	1.15	1.16	1.27	1.27	0.91	0.797	0.889	0.705	1.12	0.932	1.03	0.791	0.441	0.444	0.49	0.401	0.882	0.784	0.867	0.684
NCI-H441	0.379	0.373	0.227	0.591	0.442	0.325	0.365	0.347	1.36	0.907	0.897	1.06	0.769	0.567	0.533	0.513	0.793	1.02	0.784	0.697
NCI-H460	1.83	1.05	1.05	1.11	0.0429	0.0344	0.0404	0.0362	1.03	0.904	0.957	1.02	0.428	0.604	0.571	0.275	0.675	0.597	0.779	0.624
NCI-H520	0.648	0.479	0.582	0.531	0.222	0.226	0.239	0.209	0.893	0.784	0.831	0.771	0.424	0.407	0.581	0.413	0.884	0.683	0.798	0.678
NCI-H596	1.21	0.948	1.17	1.08	1.23	1.13	0.996	1.09	0.879	0.719	0.968	0.801	0.878	0.932	0.861	0.931	0.701	0.63	0.501	0.556
NCI-H647	1.32	0.922	1.14	0.974	0.286	0.128	0.0998	0.216	1.19	1.2	1.27	1.24	0.388	0.425	0.46	0.252	0.898	0.635	0.892	0.4
NCI-H650	0.912	0.801	1.04	0.738	0.854	0.647	0.802	0.806	1.08	1.12	1.09	1.01	0.84	0.731	0.848	0.761	0.518	0.369	0.422	0.414
NCI-H661	0.763	0.803	0.796	0.889	0.969	0.898	0.938	0.975	1.07	1.01	0.992	1.01	0.364	0.354	0.337	0.325	0.865	0.714	0.975	0.772
NCI-H727	0.988	0.689	0.797	0.802	0.343	0.286	0.375	0.355	0.981	0.744	0.932	0.845	0.594	0.568	0.777	0.583	1.26	1.14	1.08	1.05
NCI-H838	1.13	0.828	0.819	0.636	0.287	0.281	0.274	0.258	1.04	1.04	1.14	0.901	0.285	0.299	0.294	0.238	0.791	0.72	0.738	0.636
NCI-H1355	1.28	1.18	1.18	1.18	0.713	0.705	0.828	0.69	1.06	0.936	1.01	0.929	0.589	0.515	0.612	0.433	0.684	0.63	0.672	0.618
NCI-H1437	0.594	0.512	0.479	0.373	1.19	1.14	0.947	1.08	1.27	1.16	1.31	1.21	0.395	0.398	0.397	0.402	0.731	0.725	0.756	0.659
NCI-H1650	0.192	0.179	0.228	0.198	0.225	0.207	0.216	0.178	1.22	1.03	1.35	0.898	0.417	0.325	0.432	0.257	0.715	0.541	0.604	0.561
NCI-H1651	0.993	0.954	1	0.999	0.894	0.797	0.902	0.765	0.798	0.786	0.725	0.788	0.771	0.703	0.689	0.668	0.593	0.36	0.5	0.554
NCI-H1666	0.98	0.714	0.868	0.904	1.13	1.02	0.999	0.912	1.07	0.895	0.942	1	0.603	0.626	0.581	0.598	1.07	1.02	1.01	1.01
NCI-H1734	1.03	0.842	1.02	0.884	0.207	0.206	0.185	0.222	0.982	0.743	0.957	0.771	0.265	0.231	0.255	0.247	0.927	0.762	0.844	0.834
NCI-H1755	1.13	0.895	0.933	0.859	0.598	0.418	0.26	0.405	0.989	0.917	0.933	0.919	0.545	0.575	0.601	0.453	0.704	0.634	0.798	0.638
NCI-H1915	0.992	0.93	1.03	1.03	0.913	0.682	0.8	0.718	1.15	1.01	1.18	1.07	0.491	0.41	0.461	0.376	0.481	0.493	0.48	0.537
NCI-H1975	0.361	0.419	0.358	0.336	0.275	0.292	0.265	0.168	1.02	0.94	0.987	0.87	0.757	0.686	0.869	0.634	0.731	0.694	0.718	0.635
NCI-H1993	1.17	1.14	1.21	1.22	0.846	0.745	0.885	0.968	0.769	0.669	0.758	0.816	0.554	0.582	0.593	0.555	0.907	0.736	1.21	0.764
NCI-H2009	1.2	0.946	1.02	0.938	1.1	0.917	1.08	1.02	1.17	0.809	1.28	1.21	0.798	0.699	0.758	0.651	0.702	0.692	0.69	0.745
NCI-H2023	1.03	0.947	1.01	0.865	0.958	0.624	0.918	0.575	1.01	0.874	0.978	0.79	0.356	0.318	0.345	0.296	0.766	0.587	0.588	0.44
NCI-H2085	0.914	1.06	1.04	0.91	0.327	0.454	0.46	0.443	0.954	0.827	1.12	0.96		0.812	0.845	0.753		0.805	0.832	0.709
NCI-H2087	0.901	0.811	0.845	0.771	0.167	0.134	0.157	0.209	1.01	1.03	1.17	1.19	0.23	0.229	0.268	0.244	0.969	0.742	0.807	1
NCI-H2126	1.13	1.09	1.09	1.15	1.06	0.876	0.922	0.92	1.15	1.09	1.14	1.12	0.89	0.749	0.883	0.767	0.753	0.698	0.76	0.737
NCI-H2228	1.1	1.01	0.995	0.835	0.142	0.1	0.168	0.122	1.07	0.701	0.992	0.803	0.327	0.299	0.282	0.271	0.898	0.572	0.639	0.703
